Measurements: EP4413976B1, “A NEW VAMOROLONE PREPARATION EXHIBITING IMPROVED SOLUBILITY” (Santhera Pharmaceuticals (Schweiz) AG, priority 2023, dated 2024)
Converted amounts (≈) assume the structure as drawn. One block for each molecule: values may come before it.

Key:
[1] = kinetic solubility in FaSSIF (Pion µDissolution monitor); type: physicochemical; settings: thermodynamic from solid, FaSSIF pH 6.5, 37° C
Experimental: SDD prototypes were evaluated for kinetic solubility in FaSSIF (Fasted State Simulated Intestinal Fluid, pH = 6.5) using the Pion µDissolution monitor with a tip path length of 2 mm. Data were collected using AUPro software over a period of 18 hours in 20 mL of each media, heated to 37 ± 2 °C. A stir speed of 250 rpm for the duration of the experiment.

[2] = solubility in aqueous solution at 37°C; type: physicochemical
[3] = solvent solubility screening of micronized Vamorolone (visual, solvent added in aliquots); type: physicochemical; settings: for 200 µl / +100 µl: 10 mg Vamorolone; for 200 µl: dissolved after 200 µl; for +100 µl: dissolved after further 100 µl
Experimental: The solubility of micronized Vamorolone was assessed in several typical organic solvent systems suitable for use in spray drying.
A quantity of 10 mg of Vamorolone was dispensed into a 2 mL HPLC vial. The experimental design was to add the test solvent in aliquots, 200 µl and 100 µl. After each aliquot addition the sample was to be mixed on a vortex mixer for 1 minute and solubility assessed visually. Observations were also made after one hour of solvent addition.

[4] = test system: inflammatory states; settings: multiple mouse models of inflammatory states, background statement; cited from earlier work
[5] = biological target: T1, glucocorticoid receptor (Homo sapiens, UniProt P04150); settings: pre-clinical data, background statement; cited from earlier work
T1 sequence (P04150 1-777): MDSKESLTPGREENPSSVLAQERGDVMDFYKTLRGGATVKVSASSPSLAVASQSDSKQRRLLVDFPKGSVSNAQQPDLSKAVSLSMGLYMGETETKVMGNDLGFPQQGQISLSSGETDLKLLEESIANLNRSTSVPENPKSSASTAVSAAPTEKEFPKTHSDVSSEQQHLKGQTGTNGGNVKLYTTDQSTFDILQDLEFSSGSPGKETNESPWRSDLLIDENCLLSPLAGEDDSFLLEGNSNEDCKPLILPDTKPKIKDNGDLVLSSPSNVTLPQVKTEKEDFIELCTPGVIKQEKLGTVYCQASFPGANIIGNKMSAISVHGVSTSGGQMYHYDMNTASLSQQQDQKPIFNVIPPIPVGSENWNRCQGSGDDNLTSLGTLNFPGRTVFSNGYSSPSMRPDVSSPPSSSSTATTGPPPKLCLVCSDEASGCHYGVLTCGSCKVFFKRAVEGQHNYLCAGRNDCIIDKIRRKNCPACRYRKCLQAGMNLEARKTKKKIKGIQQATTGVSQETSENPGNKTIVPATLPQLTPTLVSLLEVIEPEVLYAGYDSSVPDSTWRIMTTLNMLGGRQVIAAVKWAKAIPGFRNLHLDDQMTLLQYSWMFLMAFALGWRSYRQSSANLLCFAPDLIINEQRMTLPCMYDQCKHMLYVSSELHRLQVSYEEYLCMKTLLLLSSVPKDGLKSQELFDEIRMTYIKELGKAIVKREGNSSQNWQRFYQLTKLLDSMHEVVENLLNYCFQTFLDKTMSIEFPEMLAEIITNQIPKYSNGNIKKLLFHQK

[6] = storage of cryo-milled amorphous Vamorolone; type: physicochemical; settings: room temperature in a closed container

solubility at 5 min ([1]; T=5 min): 46.4 µg/mL (≈ 130 µM) | solubility at 30 min ([1]; T=30 min): 48.9 µg/mL (≈ 137 µM) | solubility at 1 h ([1]; T=1 hour): 49.2 µg/mL (≈ 138 µM) | solubility at 4 h ([1]; T=4 hour): 49 µg/mL (≈ 137 µM) | solubility at 12 h ([1]; T=12 hour): 48.8 µg/mL (≈ 137 µM) | solubility at 18 h ([1]; T=18 hour): 48.7 µg/mL (≈ 137 µM)
Structure (SMILES): C[C@@H]1C[C@H]2[C@@H]3CCC4=CC(=O)C=C[C@]4(C)C3=CC[C@]2(C)[C@@]1(O)C(=O)CO [Crystalline API, 17α,21-dihydroxy-16α-methylpregna-1,4,9(11)-triene-3,20-dione]

solubility [2]: ~40 µg/mL (≈ 112 µM) | Observation 1 hour after solubility assessment ([3]; Acetone): Hazy | Observation after solubility assessment ([3]; Acetone): Hazy | 200 µl ([3]; Acetone): × | +100 µl ([3]; Acetone): × | Observation 1 hour after solubility assessment ([3]; DCM): Clear | Observation after solubility assessment ([3]; DCM): Clear | clear solution ([3]; DCM (dichloromethane):methanol (1:1)): 50 mg/mL | clear solution ([3]; DCM (dichloromethane):methanol (1:3)): 50 mg/mL | Observation 1 hour after solubility assessment ([3]; DCM:Methanol (1:1)): Clear | Observation after solubility assessment ([3]; DCM:Methanol (1:1)): Clear | 200 µl ([3]; DCM:Methanol (1:1)): ✔ | Observation 1 hour after solubility assessment ([3]; DCM:Methanol (1:3)): Clear | Observation after solubility assessment ([3]; DCM:Methanol (1:3)): Clear | 200 µl ([3]; DCM:Methanol (1:3)): ✔ | 200 µl ([3]; DCM): × | +100 µl ([3]; DCM): ✔ | Observation 1 hour after solubility assessment ([3]; Ethanol): Hazy | Observation after solubility assessment ([3]; Ethanol): Hazy | 200 µl ([3]; Ethanol): × | +100 µl ([3]; Ethanol): × | Observation 1 hour after solubility assessment ([3]; Ethyl Acetate): Hazy | Observation after solubility assessment ([3]; Ethyl Acetate): Hazy | 200 µl ([3]; Ethyl Acetate): × | +100 µl ([3]; Ethyl Acetate): × | Observation 1 hour after solubility assessment ([3]; Isopropanol): Hazy | Observation after solubility assessment ([3]; Isopropanol): Hazy | 200 µl ([3]; Isopropanol): × | +100 µl ([3]; Isopropanol): × | Observation 1 hour after solubility assessment ([3]; Methanol): Clear | Observation after solubility assessment ([3]; Methanol): Clear | 200 µl ([3]; Methanol): × | +100 µl ([3]; Methanol): ✔ | Observation 1 hour after solubility assessment ([3]; Water): Hazy | Observation after solubility assessment ([3]; Water): Hazy | 200 µl ([3]; Water): × | +100 µl ([3]; Water): ×
Structure (SMILES): C[C@@H]1C[C@H]2[C@@H]3CCC4=CC(=O)C=C[C@]4(C)C3=CC[C@]2(C)[C@@]1(O)C(=O)CO [Vamorolone, 17α,21-dihydroxy-16α-methylpregna-1,4,9(11)-triene-3,20-dione]
efficacy [4]: efficacy similar to prednisolone | binding to the glucocorticoid receptor [5]: binds potently

physical stability of the amorphous form [6]: recrystallize within days
Structure (SMILES): C[C@@H]1C[C@H]2[C@@H]3CCC4=CC(=O)C=C[C@]4(C)C3=CC[C@]2(C)[C@@]1(O)C(=O)CO [amorphous Vamorolone, 17α,21-dihydroxy-16α-methylpregna-1,4,9(11)-triene-3,20-dione]
